Data: patent US4003589A, “Carbonless copying paper” (Kureha Kagaku Kogyo Kabushiki Kaisha, priority 1970, dated 1977)

Key:
Viscosity of the solvent = assay type: physicochemical; conditions: 100° F; Table 2
Color of the solvent = assay type: physicochemical; conditions: Table 2, solvent
[1] = background; cited from earlier work
[2] = Acute toxicity (LD50, per oral and cutaneous); assay type: in vivo, Strain ICR-JCL Mice; conditions: ICR-JCL mice
Text: Used as test animal are Strain ICR-JCL Mice (Nippon Clea Co., Ltd.)

Compound | Viscosity (Viscosity of the solvent) | Color (Color of the solvent) | accumulation in the bodies of many animals [1] | LD50 Cutaneous [2] | LD50 Per Oral [2] | biodegradability [1]
butylnaphthalene [Butyl-naphthalene] | 4.2 cst | None |  |  |  | 
diethylnaphthalene [Diethyl-] | 3.6 cst | None |  |  |  | 
ClC1C(Cl)C(Cl)C(Cl)C(Cl)C1Cl (centres unmarked) [BHC] |  |  | accumulates |  |  | 
dimethylpropylnaphthalene [Dimethyl propyl] | 5.1 cst | None |  |  |  | 
methylbutylnaphthalene [Methyl Butyl] | 5.0 cst | None |  |  |  | 
dipropylnaphthalene | 8.5 cst | None |  | ≥ 30 mL/kg | 9.5 mL/kg | 
methylpropylnaphthalene [Methyl propyl] | 4.0 cst | None |  |  |  | 
polychlorobiphenyl [PCB, reference compound] |  | None | accumulates | 1.25 mL/kg | 1.7 mL/kg | low biodegradability
Clc1ccc(C(c2ccc(Cl)cc2)C(Cl)(Cl)Cl)cc1 [DDT] |  |  | accumulates |  |  | 
ethylpropylnaphthalene [Ethyl propyl] | 5.2 cst | None |  |  |  | 
